From PubChem BioAssay (NCI) come the findings set out here.

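Grown in 96-well plates, cells were treated for 48 hours with each compound at five concentrations. Insufficient inhibition: endpoint recorded as highest concentration tested. The concentration for full growth arrest is given as TGI.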

Among the test systems are 786-0 renal; ACHN renal; HCT-15 colon; HL-60(TB) leukemia; HT29 colon; KM12 colon; M14 melanoma; MALME-3M melanoma; MCF7 breast; MDA-N; MOLT-4 leukemia; NCI-H226 lung; NCI-H23 lung; OVCAR-4 ovarian; OVCAR-5 ovarian; SK-MEL-2 melanoma; SK-MEL-28 melanoma; SNB-19 CNS; TK-10 renal; U251 CNS.
Common to all, as to assay: inhibition of tumour cell growth, NCI panel, 48 h

`O=C1NC(N/N=C\c2ccccc2)=N/C1=C/c1ccccc1`: the TGI in the assay with 786-0 renal is > 100 µM; with ACHN renal it was 34.5 µM; in the assay on HCT-15 colon, > 100 µM; in the assay on HL-60(TB) leukemia it was > 100 µM; in the assay on HT29 colon, > 100 µM; in the assay on KM12 colon, > 100 µM. Moreover, the TGI is > 100 µM in the assay with M14 melanoma; > 100 µM in the assay on MALME-3M melanoma; > 100 µM in the assay on MCF7 breast; > 100 µM in the assay on MDA-N; 50 µM in the assay on MOLT-4 leukemia; 50.2 µM with NCI-H226 lung. The TGI in the assay on NCI-H23 lung was 58.7 µM; in the assay with OVCAR-4 ovarian, 55.9 µM; in the assay with OVCAR-5 ovarian it was 44.5 µM; with SK-MEL-2 melanoma, > 100 µM; in the assay with SK-MEL-28 melanoma, > 100 µM; in the assay with SNB-19 CNS it was 73.6 µM. The TGI with TK-10 renal and in the assay with U251 CNS was > 100 µM each time.

As to `CCOP(=O)(O)C(Nc1ccc(N=Nc2ccccc2)cc1)c1cccc(C(Nc2ccc(N=Nc3ccccc3)cc2)P(=O)(O)OCC)c1` (stereo not given), the TGI in the assay on 786-0 renal was > 100 µM; with ACHN renal it was > 100 µM; in the assay with HCT-15 colon it was > 100 µM; in the assay with HL-60(TB) leukemia, 69.7 µM; in the assay with HT29 colon, 40.9 µM; in the assay on KM12 colon, > 100 µM. In addition, the TGI was > 100 µM in the assay with M14 melanoma; > 100 µM in the assay on MALME-3M melanoma; > 100 µM with MCF7 breast; > 100 µM in the assay on MDA-N; 60.5 µM with MOLT-4 leukemia; > 100 µM in the assay with NCI-H226 lung. Also, the TGI is > 100 µM in the assay on NCI-H23 lung; > 100 µM in the assay on OVCAR-4 ovarian; > 100 µM in the assay on OVCAR-5 ovarian; > 100 µM in the assay with SK-MEL-2 melanoma; 93.7 µM in the assay on SK-MEL-28 melanoma; > 100 µM with SNB-19 CNS. Moreover, the TGI with TK-10 renal and in the assay with U251 CNS was > 100 µM throughout.

With `CCCc1nc2c(n1CC)C(=O)c1ccccc1C2=O`, the TGI in the assay with 786-0 renal was > 100 µM; with ACHN renal it was > 100 µM; in the assay on HCT-15 colon, 98 µM; in the assay with HL-60(TB) leukemia, > 100 µM; with HT29 colon, 53.3 µM; in the assay on KM12 colon it was > 100 µM. For the same compound, the TGI was 94 µM in the assay on M14 melanoma; 60.5 µM with MALME-3M melanoma; > 100 µM with MCF7 breast; 49.4 µM in the assay with MDA-N; > 100 µM in the assay on MOLT-4 leukemia; > 100 µM in the assay on NCI-H226 lung. Further, the TGI in the assay on NCI-H23 lung, with OVCAR-4 ovarian, in the assay on OVCAR-5 ovarian, in the assay on SK-MEL-28 melanoma, with SNB-19 CNS and with TK-10 renal was > 100 µM in each case. Also, in the assay with U251 CNS, the TGI was > 100 µM.

`Cc1ccc(C(=O)Oc2ccccc2)cc1N=NN(C)C`: the TGI in the assay with 786-0 renal, with ACHN renal, with HCT-15 colon, in the assay on HL-60(TB) leukemia, in the assay on HT29 colon and with KM12 colon was > 100 µM each time. The TGI in the assay with M14 melanoma, in the assay on MALME-3M melanoma, in the assay with MCF7 breast, in the assay with MDA-N, in the assay with MOLT-4 leukemia and in the assay with NCI-H226 lung was > 100 µM throughout. Further, the TGI with NCI-H23 lung, in the assay on OVCAR-4 ovarian, with OVCAR-5 ovarian, in the assay on SK-MEL-2 melanoma, in the assay with SK-MEL-28 melanoma and in the assay with SNB-19 CNS was > 100 µM in each case. Besides, the TGI with TK-10 renal and with U251 CNS was > 100 µM throughout.

With `Cc1cn(C2CC(N=[N+]=[N-])C(COP(=O)(O)OCC3OC(n4cc(F)c(=O)[nH]c4=O)CC3O)O2)c(=O)[nH]c1=O` (stereo not given), the TGI in the assay with 786-0 renal is > 100 µM; in the assay on ACHN renal, > 100 µM; in the assay with HCT-15 colon, > 100 µM; in the assay with HL-60(TB) leukemia it was > 100 µM; in the assay with HT29 colon, > 100 µM; with KM12 colon it was > 45.5 µM. In addition, the TGI with M14 melanoma is > 100 µM; in the assay on MALME-3M melanoma, > 20.2 µM; in the assay on MCF7 breast, > 100 µM; in the assay with MDA-N, > 100 µM; in the assay with MOLT-4 leukemia, > 37.2 µM; in the assay on NCI-H226 lung, > 100 µM. Also, the TGI in the assay with NCI-H23 lung is > 79.7 µM; with OVCAR-5 ovarian it was > 100 µM; in the assay on SK-MEL-2 melanoma, > 100 µM; in the assay on SK-MEL-28 melanoma, > 100 µM; in the assay on SNB-19 CNS, > 31.6 µM; with TK-10 renal, > 100 µM. In the assay on U251 CNS, the TGI was > 100 µM.

`C=CCN1CCC(c2cc(C(=O)OCC)[nH]c2-c2cc(C)no2)C1=O` (stereo not given): the TGI in the assay on 786-0 renal, with HCT-15 colon, in the assay with HL-60(TB) leukemia, with HT29 colon, in the assay on KM12 colon and in the assay with M14 melanoma was > 100 µM throughout. In addition, the TGI with MALME-3M melanoma, in the assay on MCF7 breast, with MDA-N, in the assay with MOLT-4 leukemia, in the assay on NCI-H226 lung and in the assay on NCI-H23 lung was > 100 µM throughout. The TGI with OVCAR-4 ovarian, with OVCAR-5 ovarian, with SK-MEL-2 melanoma, with SK-MEL-28 melanoma, in the assay with SNB-19 CNS and in the assay with U251 CNS was > 100 µM throughout.

In the case of `O=c1[nH][nH]c(=O)c2c1ccc1oc3ccccc3c12`, the TGI with 786-0 renal, in the assay on ACHN renal, in the assay with HL-60(TB) leukemia, in the assay on HT29 colon, in the assay with KM12 colon and with M14 melanoma was > 100 µM in each case. The TGI in the assay on MALME-3M melanoma, in the assay with MCF7 breast, with MDA-N, in the assay with MOLT-4 leukemia, with NCI-H226 lung and with NCI-H23 lung was > 100 µM each time. The TGI with OVCAR-4 ovarian, with OVCAR-5 ovarian, in the assay on SK-MEL-2 melanoma, in the assay on SK-MEL-28 melanoma, in the assay with SNB-19 CNS and in the assay on TK-10 renal was > 100 µM throughout. Further, in the assay with U251 CNS, the TGI was > 100 µM.
